Experimental data: BindingDB's records for doi:10.1021/jm00028a001 (University of Pennsylvania, 1994)

Biological target: T1, Dimer of Gag-Pol polyprotein [489-587] (Human immunodeficiency virus 1, UniProt P12497)
T1 construct: 489-587
Assay: Protease Inhibition Assay
Conditions: pH 5.5; 30 °C
Method: Sensitivity of HIV-1 protease activity to protease inhibitors was determined by a peptide substrate cleavage assay. Protease products were analyzed on a reverse-phase high-pressure liquid chromatograph.

Compound	IC50
CCC(C)[C@@H]1NC(=O)[C@@H](NC[C@@H](O)[C@H](Cc2ccc(O)cc2)NC(=O)[C@H](C(C)C)N2CCCC2=O)Cc2ccc(cc2)OCCCNC1=O (stereo partly drawn) [(2S)-N-[(2S,3R)-4-{[(8S,11S)-8-[(2R)-butan-2-yl]-7,10-dioxo-2-oxa-6,9-diazabicyclo[11.2.2]heptadeca-1(15),13,16-trien-11-yl]amino}-3-hydroxy-1-(4-hydroxyphenyl)butan-2-yl]-3-methyl-2-(2-oxopyrrolidin-1-yl)butanamide]	10 nM
CC(C)(C)NC(=O)[C@@H]1CCCCN1C[C@@H](O)[C@@H]1Cc2ccc(cc2)OCCCC(=O)N[C@@H](CC(N)=O)C(=O)N1 [Peptidomimetic inhibitor 4]	0.6 nM
CC(C)C[C@@]1(C2C=N[C@@](Cc3ccccc3)(C[C@H](O)[C@H](Cc3ccccc3)NC(=O)O[C@@H]3CCOC3)C2=O)N=CC([C@@H](Cc2ccccc2)C(N)=O)C1=O (stereo partly drawn) [(3R)-oxolan-3-yl N-[(2S,3S)-4-[(2S)-2-benzyl-4-[(2S)-4-[(1R)-1-carbamoyl-2-phenylethyl]-2-(2-methylpropyl)-3-oxo-2,3-dihydro-1H-pyrrol-2-yl]-3-oxo-2,3-dihydro-1H-pyrrol-2-yl]-3-hydroxy-1-phenylbutan-2-yl]carbamate]	1.3 nM
